Data on four molecules can be found in article PMC3034313 (Bioorganic & medicinal chemistry, 2010).

Where two headings read alike, the source gives them in different places.

Experiment [1] deals with HIV-1 IIIB. The experiment is described as follows: Antiviral activity. It is filed as cell-based. Conditions: Table 1; HIV-1 IIIB in MT-2 cells; 50% reduction in p24 production; ± SD.
For a further experiment, the target named is NTD of capsid. The settings on record: affinity for the NTD; cited from earlier work.
For another experiment, the system named is HIV-1. The settings on record: cited from earlier work.
In experiment [2] the test system is HIV-1 IIIB. It is filed as cell-based.

In turn, “N-Furan-2-ylmethyl-6-methoxy-N-(6-methyl-2-oxo-1,2-dihydro-quinolin-3-ylmethyl)-nicotinamide [Compound 19]” came in with a concentration for half-maximal inhibition (IC50) in the experiment on HIV-1 IIIB [1] of over 24.8 µM.

As to `Cc1ccc(NC(=O)NCCSCc2ccc(CN(C)C)o2)cc1Cl` [CAP-1], the dissociation constant (Kd) on NTD of capsid is about 800 µM. In the experiment with HIV-1, the “HIV-1 inhibition in viral infectivity assays” value is reported as “dose-dependent HIV-1 inhibition”, the “infectivity of particles produced after treatment” value is reported as “poorly infectious” and the “inhibition of virus production” value is given as “virtually no inhibition of virus production”.

With `Cc1ccc2[nH]c(=O)c(CN(Cc3ccco3)C(=O)c3ccc(Cl)cc3)cc2c1` [Compound 6], the “percentage of infectivity with respect to the untreated control” value in the experiment with HIV-1 IIIB [2] (producer MT-2 cells treated with 2.5 μM, p24-normalized, TCID50) is given as “about 60%”. In the experiment on HIV-1 IIIB [2] (producer MT-2 cells treated with 5 μM), the “infectivity of virions released in the supernatant” value is on record as “no viral infectivity”.

As for `c1cc(CN2CCCNCCNCCCNCC2)ccc1CN1CCCNCCNCCCNCC1` [AMD3100], the “infectivity of virions released in the supernatant” value with HIV-1 IIIB [2] (producer MT-2 cells treated with 1 μg/mL, positive control) is listed as “no viral infectivity”.

By IC50 is commonly meant the concentration that gives 50% inhibition. Low readings indicate inhibition by little substance, high ones a need for much substance. What is called Kd is the equilibrium constant for the complex coming apart.
